The target in assay [1] is human CGAS (157-522) (Homo sapiens, UniProt Q8N884). The assay is described as follows: biochemical.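 Note: biochemical enzyme reaction, 2′3′-cGAMP product measured by RapidFire mass spectrometry (MRM) normalised to c-di-UMP internal standard, inhibition of product formation relative to high and low control wells.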
Experimental: Compounds were serially diluted 2, 3, or 4-fold in neat DMSO to generate 11-point dose response curves and then 250 nL compound or DMSO solution was transferred to Greiner 384-well V-bottom assay plates (Catalog #781280) using an Echo acoustic dispenser (Labcyte). A solution of 150 μM ATP, 150 μM GTP, 20 μM pppGpA (GTP-2′5′-AMP, custom synthesis from ChemGenes), and 10 μg/mL sheared salmon sperm DNA (Sigma, Catalog #D1626) in assay buffer (20 mM Trizma, pH 7.5, 10 mM magnesium chloride, 0.3 mM CHAPS, and 0.01% (w/v) bovine serum albumin) was added to columns 1-17, 19-24 of the plate at 12.5 μL/well using a Combi liquid handler (ThermoFisher). A 12.5 μL/well low control solution containing 150 μM ATP, 150 μM GTP, 20 μM pppGpA in assay buffer was added to column 18 using the Combi. A 12.5 μL/well solution of 10-100 nM human CGAS (157-522) in assay buffer was then added to all wells of the plate using the Combi. […] Reactions were quenched by added 50 μL/well of 0.5% (v/v) trifluoroacetic acid (TFA) in mass spectrometry grade deionized water containing 5 μM cyclic-di-UMP (ci-di-UMP; Invivogen Catalog #tlrl-cdu) as the internal standard (IS). Plates were centrifuged for 1 min and then quenched reactions were analyzed using a RF-MS 300 system operating in a Multiple Reaction Monitoring (MRM) detection mode.
Samples (10 μL injection volume) were passed over a silica C18/type C solid phase extraction (SPE) cartridge for analyte (2′3′-cyclic guanosine monophosphate adenosine monophosphate (2′3′-cGAMP), product of biochemical reaction)/pppGpA/c-di-UMP IS adsorption. Adsorbed samples were desalted for 3000 ms using a 100% water eluent A/desalting solution. Afterwards, desalted samples were eluted using a 0.5% TFA in 20%/80% acetonitrile/water eluent B/elution solution directly into either a Sciex 4000, 5000 or 5500 triple quadrupole mass spectrometer (QQQ-MS) for MRM analyte/IS detection. QQQ-MS detection conditions were as follow: scan type: MRM; curtain (CUR) gas: 30 psi; nebulizer (GS1) gas: 50 psi; drying (GS2) gas: 60 psi; collisionally activated dissociation (CAD) gas: 12 relative setting; precursor ion (Q1) masses: 2′3′-cGAMP: m/z 675.1 Da/pppGpA: m/z 853.0 Da/c-di-UMP: m/z 613.1 Da; fragment ion (Q3) masses: 2′3′-cGAMP: m/z 524.1 Da/pppGpA: m/z 702.0 Da/c-di-UMP: 307.1 Da; declustering potentials (DPs): 2′3′-cGAMP: +81 V/pppGpA: +85 V/c-di-UMP: +85 V; entrance potential: +10 V (all analytes); collision energies (CEs): 2′3′-cGAMP: +33 V/pppGpA: +36 V/c-di-UMP: +35 V; collision cell exit potential (CXP): +10 V (all analytes); interface heater (Sciex 4000/5000 only): on; Q1 resolution: unit (all analyte); Q3 resolution: unit (all analytes). The area under the curve (AUC) for all analytes was obtained using the RapidFire Integrator software application to calculate AUC-2′3′-cGAMP/AUC-c-di-UMP intensity ratio. Percent product formation was calculated by comparison to column 6 (high control)/column 18 (low control) responses. The % product inhibition was calculated as follows:
[formula] where A is the minimum response, B is the maximum response, C is the log10*XC50, D is the slope factor, and x is the log10 compound concentration [M] in ABASE XE.
The subject of assay [2] is CGAS. The experiment in a line: CGAS whole blood cytokine release assay (384-well, BacMam stimulation, IP-10 by cytometric bead array). Type of assay: cell-based. The settings on record: Homo sapiens, 6 h; read-out: hWB pXC50 (converted). In short, it runs like this: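 Heparinised human donor whole blood mixed with serially diluted compound plus Null BacMam stimulus, incubated 6 h at 37° C, 5% CO2. Supernatant IP-10 quantified by cytometric bead array on flow cytometer (488 nm excitation, 585/40 nm emission); inhibition of IP-10 calculated.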

Structures are written as SMILES. Counter-ions that a name gives are not always drawn.

Chain of human CGAS (157-522) (Q8N884 157-522): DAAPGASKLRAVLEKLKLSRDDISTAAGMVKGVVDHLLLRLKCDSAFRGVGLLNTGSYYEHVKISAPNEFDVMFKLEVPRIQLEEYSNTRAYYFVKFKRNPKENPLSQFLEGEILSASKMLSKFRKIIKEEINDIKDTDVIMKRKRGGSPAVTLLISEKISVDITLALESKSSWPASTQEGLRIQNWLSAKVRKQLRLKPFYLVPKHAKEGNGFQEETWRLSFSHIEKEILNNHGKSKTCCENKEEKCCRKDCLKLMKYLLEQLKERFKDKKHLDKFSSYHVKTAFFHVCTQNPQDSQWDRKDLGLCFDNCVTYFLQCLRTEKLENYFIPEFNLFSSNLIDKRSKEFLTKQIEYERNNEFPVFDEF

As to `FC(F)(F)c1n[nH]c(-c2nc3nc(Cl)ccn3c2-c2cnc[nH]2)n1` [Example 7, 5-[7-chloro-3-(1H-imidazol-5-yl)imidazo[1,2-a]pyrimidin-2-yl]-3-(trifluoromethyl)-1H-1,2,4-triazole, trifluoroacetic acid salt], the IC50 in assay [1] was 6.31 nM; in assay [2], 1580 nM.
Regarding `CC(=O)N1CCC(COCc2cnc3nc(-c4nc(C(F)(F)F)n[nH]4)c(-c4c[nH]cn4)n3c2)C1` (stereo not drawn) [Example 149, 1-[3-({[3-(1H-imidazol-4-yl)-2-[3-(trifluoromethyl)-1H-1,2,4-triazol-5-yl]imidazo[1,2-a]pyrimidin-6-yl]methoxy}methyl)pyrrolidin-1-yl]ethan-1-one], the values for the IC50 in assay [1] and in assay [2] were 10 nM and 10000 nM, respectively.
With `FC(F)(F)c1n[nH]c(-c2nc3ncc(COC4CCC4)cn3c2-c2c[nH]cn2)n1` [Example 157, 5-[6-(cyclobutoxymethyl)-3-(1H-imidazol-4-yl)imidazo[1,2-a]pyrimidin-2-yl]-3-(trifluoromethyl)-1H-1,2,4-triazole], the IC50 in assay [1] was 2.51 nM; in assay [2], 251 nM.
`OCCCCCOCc1cnc2nc(-c3nc(C(F)(F)F)n[nH]3)c(-c3cnc[nH]3)n2c1` [Example 142, 5-{[3-(1H-imidazol-5-yl)-2-[3-(trifluoromethyl)-1H-1,2,4-triazol-5-yl]imidazo[1,2-a]pyrimidin-6-yl]methoxy}pentan-1-ol]: the IC50 in assay [1] was 3.98 nM; in assay [2] it was 794 nM.
Turning to `CC(O)c1ccn2c(-c3cnc[nH]3)c(-c3nc(C(F)(F)F)n[nH]3)nc2n1` (stereo not drawn) [Example 13, 1-[3-(1H-imidazol-5-yl)-2-[3-(trifluoromethyl)-1H-1,2,4-triazol-5-yl]imidazo[1,2-a]pyrimidin-7-yl]ethan-1-ol], the IC50 in assay [1] was 10 nM; in assay [2], 1000 nM.
With `FC(F)(F)c1n[nH]c(-c2nc3ncc(CN4CCOCC4)cn3c2-c2c[nH]cn2)n1` [Example 70, 4-{[3-(1H-imidazol-4-yl)-2-[3-(trifluoromethyl)-1H-1,2,4-triazol-5-yl]imidazo[1,2-a]pyrimidin-6-yl]methyl}morpholine], the results for the IC50 in assay [1] and in assay [2] were 3.16 nM and 2000 nM, respectively.
Consider `COC(C)c1cnc2nc(-c3nc(C(F)(F)F)n[nH]3)c(-c3c[nH]cn3)n2c1` (stereo not drawn) [Example 165, 5-[3-(1H-imidazol-4-yl)-6-(1-methoxyethyl)imidazo[1,2-a]pyrimidin-2-yl]-3-(trifluoromethyl)-1H-1,2,4-triazole], for which the IC50 is 6.31 nM in assay [1] and 200 nM in assay [2].
For `N#Cc1cnc2nc(-c3nc(C(F)(F)F)n[nH]3)c(-c3cnc[nH]3)n2c1` [Example 110, 3-(1H-imidazol-5-yl)-2-[3-(trifluoromethyl)-1H-1,2,4-triazol-5-yl]imidazo[1,2-a]pyrimidine-6-carbonitrile], the values for the IC50 in assay [1] and in assay [2] were 50.1 nM and 398 nM, respectively.
Regarding `Fc1cnc2nc(-c3nc(C(F)(F)F)n[nH]3)c(-c3cn[nH]c3)n2c1` [Example 38, 5-[6-fluoro-3-(1H-pyrazol-4-yl)imidazo[1,2-a]pyrimidin-2-yl]-3-(trifluoromethyl)-1H-1,2,4-triazole], the IC50 in assay [1] is 7.94 nM; in assay [2], 1000 nM.
For `FC(F)(F)c1n[nH]c(-c2nc3ncc(COCCn4cccn4)cn3c2-c2c[nH]cn2)n1` [Example 146, 5-[3-(1H-imidazol-4-yl)-6-{[2-(1H-pyrazol-1-yl)ethoxy]methyl}imidazo[1,2-a]pyrimidin-2-yl]-3-(trifluoromethyl)-1H-1,2,4-triazole], in that order: 6.31 nM and 2000 nM.
With `FC(F)(F)c1ccn2c(-c3cnc[nH]3)c(-c3nc(C(F)(F)F)n[nH]3)nc2n1` [Example 3, 5-[3-(1H-imidazol-5-yl)-7-(trifluoromethyl)imidazo[1,2-a]pyrimidin-2-yl]-3-(trifluoromethyl)-1H-1,2,4-triazole], the values for the IC50 in assay [1] and in assay [2] were 6.31 nM and 794 nM, respectively.
Regarding `COCc1cnc2nc(-c3nc(C(F)(F)F)n[nH]3)c(-c3cnc[nH]3)n2c1` [Example 69, 5-[3-(1H-imidazol-5-yl)-6-(methoxymethyl)imidazo[1,2-a]pyrimidin-2-yl]-3-(trifluoromethyl)-1H-1,2,4-triazole], the IC50 in assay [1] is 2.51 nM; in assay [2], 126 nM.
For `FC(F)(F)c1n[nH]c(-c2nc3nc4c(cn3c2-c2cnc[nH]2)CNCC4)n1` [Example 74, 6-(1H-imidazol-5-yl)-5-[3-(trifluoromethyl)-1H-1,2,4-triazol-5-yl]-2,4,7,11-tetraazatricyclo[7.4.0.0^3,^7]trideca-1,3,5,8-tetraene], in that order: 7.94 nM and 1260 nM.
The like results for `FC(F)CN1CC(Oc2cnc3nc(-c4nc(C(F)(F)F)n[nH]4)c(-c4cnc[nH]4)n3c2)C1` [Example 162, 5-(6-{[1-(2,2-difluoroethyl)azetidin-3-yl]oxy}-3-(1H-imidazol-5-yl)imidazo[1,2-a]pyrimidin-2-yl)-3-(trifluoromethyl)-1H-1,2,4-triazole] were, in that order, 7.94 nM and 1000 nM.
Take `Nc1ccn2c(-c3cnc[nH]3)c(-c3nc(C(F)(F)F)n[nH]3)nc2n1` [Example 107, 3-(1H-imidazol-5-yl)-2-[3-(trifluoromethyl)-1H-1,2,4-triazol-5-yl]imidazo[1,2-a]pyrimidin-7-amine]: the IC50 was 2.51 nM in assay [1] and 631 nM in assay [2].
Turning to `FC(F)(F)c1n[nH]c(-c2nc3nc4c(cn3c2-c2cnc[nH]2)CCC4)n1` [Example 133, 12-(1H-imidazol-5-yl)-11-[3-(trifluoromethyl)-1H-1,2,4-triazol-5-yl]-1,8,10-triazatricyclo[7.3.0.0^3,^7]dodeca-2,7,9,11-tetraene], the IC50 in assay [1] is 3.16 nM; in assay [2] it was 200 nM.
With `Fc1cn2c(-c3cnc[nH]3)c(-c3nc(C(F)(F)F)n[nH]3)nc2nc1C(F)(F)F` [Example 125, 5-[6-fluoro-3-(1H-imidazol-5-yl)-7-(trifluoromethyl)imidazo[1,2-a]pyrimidin-2-yl]-3-(trifluoromethyl)-1H-1,2,4-triazole], the IC50 in assay [1] was 15.8 nM; in assay [2] it was 3160 nM.
Turning to `FC(F)(F)c1n[nH]c(-c2nc3ncc(COC4CCOC4)cn3c2-c2cnc[nH]2)n1` (stereo not drawn) [Example 78, 5-[3-(1H-imidazol-5-yl)-6-[(oxolan-3-yloxy)methyl]imidazo[1,2-a]pyrimidin-2-yl]-3-(trifluoromethyl)-1H-1,2,4-triazole], the IC50 in assay [1] was 7.94 nM; in assay [2], 398 nM.
Turning to `FC(F)c1ccn2c(-c3cnc[nH]3)c(-c3nc(C(F)(F)F)n[nH]3)nc2n1` [Example 95, 5-[7-(difluoromethyl)-3-(1H-imidazol-5-yl)imidazo[1,2-a]pyrimidin-2-yl]-3-(trifluoromethyl)-1H-1,2,4-triazole], the results for the IC50 in assay [1] and in assay [2] were 10 nM and 398 nM, respectively.
As to `COCC(C)COCc1cnc2nc(-c3nc(C(F)(F)F)n[nH]3)c(-c3cnc[nH]3)n2c1` (stereo not drawn) [Example 127, 5-[3-(1H-imidazol-5-yl)-6-[(3-methoxy-2-methylpropoxy)methyl]imidazo[1,2-a]pyrimidin-2-yl]-3-(trifluoromethyl)-1H-1,2,4-triazole], the IC50 in assay [1] was 7.94 nM; in assay [2] it was 251 nM.
Regarding `CC(C)(COCc1cnc2nc(-c3nc(C(F)(F)F)n[nH]3)c(-c3c[nH]cn3)n2c1)n1ccnc1` [Example 150, 5-(6-{[2-(1H-imidazol-1-yl)-2-methylpropoxy]methyl}-3-(1H-imidazol-4-yl)imidazo[1,2-a]pyrimidin-2-yl)-3-(trifluoromethyl)-1H-1,2,4-triazole], the IC50 in assay [1] was 5.01 nM; in assay [2] it was 5010 nM.
For `FC(F)(F)c1n[nH]c(-c2nc3ncc(C4CCCO4)cn3c2-c2cnc[nH]2)n1` (stereo not drawn) [Example 82, 5-[3-(1H-imidazol-5-yl)-6-(oxolan-2-yl)imidazo[1,2-a]pyrimidin-2-yl]-3-(trifluoromethyl)-1H-1,2,4-triazole], the IC50 in assay [1] was 5.01 nM; in assay [2], 200 nM.
For the compound `FC(F)(F)COCc1cnc2nc(-c3nc(C(F)(F)F)n[nH]3)c(-c3cnc[nH]3)n2c1` [Example 111, 5-[3-(1H-imidazol-5-yl)-6-[(2,2,2-trifluoroethoxy)methyl]imidazo[1,2-a]pyrimidin-2-yl]-3-(trifluoromethyl)-1H-1,2,4-triazole], the IC50 is 3.98 nM in assay [1] and 398 nM in assay [2].
For `FC(F)(F)c1n[nH]c(-c2nc3ncc(COCC(F)(F)C(F)(F)C(F)(F)F)cn3c2-c2cnc[nH]2)n1` [Example 123, 5-{6-[(2,2,3,3,4,4,4-heptafluorobutoxy)methyl]-3-(1H-imidazol-5-yl)imidazo[1,2-a]pyrimidin-2-yl}-3-(trifluoromethyl)-1H-1,2,4-triazole], the IC50 in assay [1] is 6.31 nM; in assay [2], 1260 nM.
As for `CC(NCc1ccn2c(-c3c[nH]cn3)c(-c3nc(C(F)(F)F)n[nH]3)nc2n1)C(F)(F)F` (stereo not drawn) [Example 118, {[3-(1H-imidazol-4-yl)-2-[3-(trifluoromethyl)-1H-1,2,4-triazol-5-yl]imidazo[1,2-a]pyrimidin-7-yl]methyl}(1,1,1-trifluoropropan-2-yl)amine], the IC50 is 12.6 nM in assay [1] and 631 nM in assay [2].
`COCc1cn2c(-c3cnc[nH]3)c(-c3nc(C(F)F)n[nH]3)nc2nc1C(F)(F)F` [Example 121, 3-(difluoromethyl)-5-[3-(1H-imidazol-5-yl)-6-(methoxymethyl)-7-(trifluoromethyl)imidazo[1,2-a]pyrimidin-2-yl]-1H-1,2,4-triazole]: the results for the IC50 in assay [1] and in assay [2] were 7.94 nM and 1580 nM, respectively.
Take `FC(F)(F)c1n[nH]c(-c2nc3ncc(COCCC4COCCO4)cn3c2-c2c[nH]cn2)n1` (stereo not drawn) [Example 145, 5-(6-{[2-(1,4-dioxan-2-yl)ethoxy]methyl}-3-(1H-imidazol-4-yl)imidazo[1,2-a]pyrimidin-2-yl)-3-(trifluoromethyl)-1H-1,2,4-triazole]: the figures for the IC50 in assay [1] and in assay [2] were 10 nM and 1000 nM, respectively.

For the origin of these results see patent US12247033B2, “Triazole-substituted imidazo[1,2-a]pyrimidines as cGAS inhibitors” (GlaxoSmithKline Intellectual Property Development Limited, priority 2022, dated 2025).
